Data on eight compounds can be found in paper PMC9952338, “Chemical Constituents from Streblus taxoides Wood with Their Antibacterial and Antityrosinase Activities Plus in Silico Study” (Antibiotics, 2023).

Structures are written as SMILES. In brackets after ≈: the same amount, converted by molar mass. Entries after “also recorded” stand apart in the source; their conditions may differ. Read-outs that look alike come from different tables or passages of the source. A value given as a limit tells only on which side of the number the result lay.

Experiment [1] deals with methicillin-resistant Staphylococcus aureus (DMST20654). In words: MIC and MBC by modified broth microdilution. The note with it: MRSA; for MBC / MIC: Staphylococcus aureus. It counts as cell-based. Here is the method: (§1) Microorganisms that cause skin infection, such as Staphylococcus aureus (ATTC 25923), Staphylococcus epidermidis (TISTR 517), Cutibacterium acnes (DMST 14916) and methicillin-resistant Staphylococcus aureus (DMST20654), were selected for this study. The isolated compounds were determined for minimum inhibitory concentration (MIC) in a 96-well plate by modified broth microdilution method and minimum bactericidal concentration (MBC). Oxacillin was used as positive controls for S. aureus, S. epidermidis and C. acnes, while vancomycin was used for MRSA.

Experiment [2] deals with Staphylococcus aureus (ATTC 25923). Kind of experiment: MIC and MBC by modified broth microdilution. In kind it is cell-based. The note with it: S. aureus; for MBC / MIC: Staphylococcus aureus. Here is the method: as §1
Experiment [3] concerns Cutibacterium acnes (DMST 14916). In words: MIC and MBC by modified broth microdilution. In kind it is cell-based. The note with it: C. acnes. Here is the method:
as §1

Experiment [4] has as its system Staphylococcus epidermidis (TISTR 517). Kind of experiment: MIC and MBC by modified broth microdilution. In kind it is cell-based. As to conditions: S. epidermidis; for MBC / MIC: Staphylococcus epidermidis, TISTR517. The procedure: as §1
The test system of a further experiment is B16-F1 melanoma cells. In words: Melanin content. It counts as cell-based, murine. The note with it: 50 µg/mL. Here is the method:
(§2) The murine B16-F1 melanoma cells (CLS-400122, CLS Cell Lines Service GmbH, Germany) were cultured in Dulbecco’s modified Eagle’s medium, which was supplemented with 10% fetal bovine serum in a humidified incubator at 37 C with 5% CO2. When cells reached 70–80% confluence cell viability, cellular tyrosinase activity and melanin content were measured. The B16-F1 cells were seeded at a density of 3 × 10^5 cells/well on 12-well plates and cultured for 12 h. Cells were treated with test samples and control (0.5% DMSO). After 48 h of incubation, cells were lysed with RIPA and centrifuged at 14,000 rpm for 20 min (4 °C) to separate the cell pellet and supernatant. The supernatant was collected and the protein content was determined by the Bradford method using bovine serum albumin as standard. The supernatant was incubated and 2 mg/mL L-Dopa was added to a 96-well plate at 25 °C for 1 h. After that, optical densities were measured at 492 nm. Then, tyrosinase inhibition was calculated, while the cell pellet was dissolved with 1 M NaOH and incubated at 55 °C for 1 h. Melanin concentration was calculated by comparing the absorbance at 475 nm using a standard curve of synthetic melanin.

For experiment [5], the system named is tyrosinase in B16-F1 melanoma cells. In words: Intracellular antityrosinase activity. It counts as cell-based, murine. As to conditions: 50 µg/mL, 48 h. Here is the method:
as §2

The next experiment addresses tyrosinase enzyme. Kind of experiment: Enzymatic antityrosinase activity, Dopachrom method with L-DOPA. In kind it is biochemical, mushroom. As to conditions: for IC50 Values: Experiment of Table 4, reference for the correlation, in µg/mL; for IC50 on tyrosinase inhibitory activity: L-DOPA substrate, pH 6.8, 25 °C. The procedure: The tyrosinase activity was measured by the Dopachrom method using L-DOPA as a substrate. Briefly, 140 μL phosphate buffer (pH 6.8), 20 μL sample solution, and 20 μL tyrosinase solution (203.3 unit/mL) were mixed at 25 °C for 10 min, after which 20 μL of 0.85 mM L-Dopa was added. The optical density (OD) was measured at 492 nm. After incubation at 25 °C for 20 min, the optical density was measured again.

The test system of experiment [6] is MITF, tyrosinase, TRP1 and TRP2 in B16-F1 cells. In words: Western blot of melanogenic protein expression. In kind it is cell-based, murine. As to conditions: 25 and 50 µg/mL. From the text:
The protein content of the supernatant was quantified by the Bradford method using bovine serum albumin as standard. Equal amounts of protein were separated by 40% acrylamide/Bissolution (InvitrogenThermoFisher Scientific, Waltham, MA, USA) and transferred onto nitrocellulose membranes (BIO-RAD Laboratories, Feldkirchen, Germany). The membranes were probed with antibodies against microphthalmia-associated transcription factor; MITF (ThermoFisher Scientific #MA5-16214, Waltham, MA, USA), tyrosinase (ThermoFisher Scientific #35-6000, Waltham, MA, USA), tyrosinase-related protein 1; TRP1 (ThermoFisher Scientific #OSR00085W, Waltham, MA, USA) and tyrosinase-related protein 2; TRP2 (ThermoFisher Scientific #PA5-36485, Waltham, MA, USA). The proteins were detected using an enhanced chemiluminescence kit (BIO-RAD Laboratories, Hercules, CA, USA). Quantitative analysis was performed using a digital imager (UPV UVP, VisionWork^T LS, Image Acquisition & Analysis Software). The method applied was modified from Western Blot analysis for UGT1A family by the co-author, Asst. Prof. Dr. Wandee Udomuksorn, Pharmacology Program, Division of Health and Applied Science, Faculty of Science, Prince of Songkla University, Thailand., Department of Clinical Pharmacology, Flinders Medical Center.

Another experiment concerns tyrosinase. More on the design: method as in PMID 27598113. The note with it: cited from earlier work.
[7] abbreviates: listed as 3, 4, 3′, 5′-tetrahydroxybibenzyl.

For `CC(C)=CCc1c(O)cc(-c2cc3ccc(O)cc3o2)cc1O` [Compound 3, moracin C], the “Inhibitory effect (in words)” value in experiment [1], in experiment [2] and in experiment [4] was “stronger inhibitory effect” throughout. Besides, the MBC in experiment [1] (read-out: MBC) is 64 µg/mL (≈ 206 µM); in experiment [2], 64 µg/mL (≈ 206 µM); in experiment [3], > 256 µg/mL; in [4], > 256 µg/mL. In addition, the MIC in experiment [1] (read-out: MIC) was determined as 32 µg/mL (≈ 103 µM); in experiment [2] it was 32 µg/mL (≈ 103 µM); in experiment [3], 128 µg/mL (≈ 412 µM); in experiment [4] it was 128 µg/mL (≈ 412 µM). In the experiment on B16-F1 melanoma cells, the Melanin content result is on record as “could decrease the melanin content”. Further, the Intracellular antityrosinase activity result in [5] is “exhibited antityrosinase activity”. The “IC50 Values” at tyrosinase enzyme is given as 128.67. The “IC50 on tyrosinase inhibitory activity” value against tyrosinase enzyme amounted to 128.67 ± 1.21 µg/mL (≈ 415 µM). Further, the Melanogenic protein expression result in experiment [6] is “decreasing microphthalmia-associated transcription factor (MITF), tyrosinase (TYR), tyrosinase-related protein 1 (TRP1) and tyrosinase-related protein 2 (TRP2); also recorded: downregulated the melanogenic protein expression”.
For the compound `CC(=CCc1c(O)cc(-c2cc3ccc(O)cc3o2)cc1O)CO` [Compound 1, ω-Hydroxymoracin C], the “Inhibitory effect (in words)” value in [1], in experiment [2] and in experiment [4] was “stronger inhibitory effect” throughout. Besides, the MBC in [1] (read-out: MBC) was > 256 µg/mL; in experiment [2], 32 µg/mL (≈ 98.1 µM); in [3], > 256 µg/mL; in experiment [4], 32 µg/mL (≈ 98.1 µM). Further, the MIC in [1] (read-out: MIC) came out at 16 µg/mL (≈ 49 µM); in experiment [2], 16 µg/mL (≈ 49 µM); in experiment [3], 128 µg/mL (≈ 392 µM); in experiment [4], 16 µg/mL (≈ 49 µM). Also, the Melanin content result with B16-F1 melanoma cells is “could decrease the melanin content”. The Intracellular antityrosinase activity entry in experiment [5] is on record as “exhibited antityrosinase activity”. Moreover, the “IC50 Values” on tyrosinase enzyme came out at 109.64. Also, the “IC50 on tyrosinase inhibitory activity” value against tyrosinase enzyme is 109.64 ± 0.89 µg/mL (≈ 336 µM). Also, the Melanogenic protein expression result was “downregulated the melanogenic protein expression” in experiment [6] (listed as ω-Hydroxymoracin C); “decreasing microphthalmia-associated transcription factor (MITF), tyrosinase (TYR), tyrosinase-related protein 1 (TRP1) and tyrosinase-related protein 2 (TRP2)” in [6] (listed as ω-hydroxymoracin C).
As to `Oc1cc(O)cc(-c2cc3ccc(O)cc3o2)c1` [Compound 2, moracin M], the “Inhibitory effect (in words)” value in [1], in experiment [2] and in experiment [4] was “weak inhibitory effect” each time. Moreover, the MBC in [1] (read-out: MBC), in [2], in experiment [3] and in experiment [4] was > 256 µg/mL throughout. For the same compound, the MIC was 64 µg/mL (≈ 264 µM) in experiment [1] (read-out: MIC), 256 µg/mL (≈ 1060 µM) in experiment [2], > 256 µg/mL in experiment [3] and 64 µg/mL (≈ 264 µM) in experiment [4]. Further, the Melanin content result in the experiment on B16-F1 melanoma cells is given as “could decrease the melanin content”. Besides, the Intracellular antityrosinase activity result in experiment [5] is on record as “exhibited antityrosinase activity”. Further, the “IC50 Values” at tyrosinase enzyme was found to be 47.34. Besides, the “IC50 on tyrosinase inhibitory activity” value at tyrosinase enzyme is listed as 47.34 ± 0.78 µg/mL (≈ 195 µM). In [6], the Melanogenic protein expression result is “decreasing microphthalmia-associated transcription factor (MITF), tyrosinase (TYR), tyrosinase-related protein 1 (TRP1) and tyrosinase-related protein 2 (TRP2); also recorded: downregulated the melanogenic protein expression”.
On to `Cc1onc(-c2ccccc2)c1C(=O)N[C@@H]1C(=O)N2[C@@H]1SC(C)(C)[C@@H]2C(=O)O` [Oxa, Oxacillin, reference compound], for which the values for the MBC in experiment [2], in experiment [3] and in experiment [4] were 0.125 µg/mL (≈ 0.311 µM), 0.5 µg/mL (≈ 1.25 µM) and 0.5 µg/mL (≈ 1.25 µM), respectively. Besides, the MIC stood at 0.125 µg/mL (≈ 0.311 µM) in [2], 0.5 µg/mL (≈ 1.25 µM) in experiment [3] and 0.5 µg/mL (≈ 1.25 µM) in [4].
As for `Oc1cc(O)cc(CCc2ccc(O)c(O)c2)c1` [Compound 4, 3,4, 3′, 5′-tetrahydroxybibenzyl], the MBC in [1] (read-out: MBC) is 256 µg/mL (≈ 1040 µM); in experiment [2], 256 µg/mL (≈ 1040 µM); in experiment [3], > 256 µg/mL; in experiment [4], > 256 µg/mL. For the same compound, the MIC in experiment [1] (read-out: MIC) was 64 µg/mL (≈ 260 µM); in [2] it was 128 µg/mL (≈ 520 µM); in [3], > 256 µg/mL; in experiment [4], 128 µg/mL (≈ 520 µM). The Melanin content result in the experiment with B16-F1 melanoma cells (setting [7]) is given as “increased the melanin content; also recorded: increase melanin content”. Also, the “IC50 on tyrosinase inhibitory activity” value at tyrosinase enzyme was 35.65 ± 0.98 µg/mL (≈ 145 µM). The Melanogenic protein expression entry in experiment [6] (setting [7]) is “increasing microphthalmia-associated transcription factor (MITF) and tyrosinase (TYR); also recorded: upregulating the melanogenic protein expression”.
As for `Oc1cc(O)cc(/C=C/c2ccc(O)c(O)c2)c1` [Compound 5, piceatannol], the MBC in experiment [1] (read-out: MBC) is > 256 µg/mL; in experiment [2], > 256 µg/mL; in experiment [3], > 256 µg/mL; in [4], 128 µg/mL (≈ 524 µM). In addition, the MIC in [1] (read-out: MIC) is 128 µg/mL (≈ 524 µM); in experiment [2], > 256 µg/mL; in [3], > 256 µg/mL; in [4], 64 µg/mL (≈ 262 µM). For the same compound, the Melanin content result in the experiment on B16-F1 melanoma cells is “increased the melanin content; also recorded: increase melanin content”. The “IC50 Values” against tyrosinase enzyme was 149.73. For the same compound, the “IC50 on tyrosinase inhibitory activity” value against tyrosinase enzyme was 149.73 ± 0.86 µg/mL (≈ 613 µM). Also, the Melanogenic protein expression result in experiment [6] was “increasing microphthalmia-associated transcription factor (MITF) and tyrosinase (TYR); also recorded: upregulating the melanogenic protein expression”.
In the case of `CC1(C)C=Cc2c(O)cc(-c3cc4ccc(O)cc4o3)cc2O1` [moracin D], the “Antityrosinase activity (in words)” value in the experiment with tyrosinase is recorded as “did not display antityrosinase activity”.
On to `CN[C@H](CC(C)C)C(=O)N[C@H]1C(=O)N[C@@H](CC(N)=O)C(=O)N[C@H]2C(=O)N[C@H]3C(=O)N[C@H](C(=O)N[C@H](C(=O)O)c4cc(O)cc(O)c4-c4cc3ccc4O)[C@H](O)c3ccc(c(Cl)c3)Oc3cc2cc(c3O[C@@H]2O[C@H](CO)[C@@H](O)[C@H](O)[C@H]2O[C@H]2C[C@](C)(N)[C@H](O)[C@H](C)O2)Oc2ccc(cc2Cl)[C@H]1O` [Van, Vancomycin, reference compound], for which, in experiment [1], the MBC stood at 0.5 µg/mL (≈ 0.345 µM) and inhibition of growth (MIC) required 0.125 µg/mL (≈ 0.0863 µM).
